Patent US10076522B2, “Systems and methods for treating bacterial infection” (priority 2016, dated 2018)
Structures can show the parent of a compound that is named as a salt.

Columns and labels:
[1] = in vivo, iv; cited from earlier work
[2] = Acute IV toxicity in rats; settings: rat, in vivo
[3] = Acute IV toxicity in the mouse; format: in vivo
in vivo = settings: both; for NOAEL at 28 day: marmoset
Description: A repeated-dose, 4-week toxicity study was conducted in male and female rats, where single, daily IV bolus doses up to 60 mg/kg were given. […] A 28-day toxicity study was also conducted in male and female marmosets, where iclaprim mesylate was infused intravenously over a 20-minute interval.

[4] = pH of a 1% solution in water; format: physicochemical
physchem [5] = test: physchem
physchem [6] = settings: 20 °C, water
[7] = human, in vivo
[8] = system: acute bacterial skin and skin structure infections (ABSSSIs) suspected or confirmed to be due to Gram-positive pathogens; test: Phase III REVIVE-1 study, efficacy of fixed dose iclaprim versus vancomycin; format: in vivo, human; settings: ITT
Description: Subjects were evaluated daily up to ETP, then every 48 to 72 hours through the end of treatment. If the last dose of study drug fell on a day when an evaluation was not planned, an additional evaluation visit was performed on that day (i.e., all EOT evaluations were performed on the last day [+2 days] of drug dose).
The infusion time and duration of treatment for both groups was 2 hours and 5 days (minimum duration) to 14 days (maximum duration), respectively.
The primary endpoint for clinical response (defined as the reduction in lesion size ≥20% compared to baseline) was evaluated in all randomized subjects at ETP (48 to 72 hours post-first dose). […] In addition, clinical outcome was evaluated by the investigator at EOT and TOC (7 to 14 days post EOT). The assessments of clinical outcome was categorized as cure, failure, or indeterminate.
Iclaprim was administered at a dose of 80 mg in 500 mL normal saline, infused over 2 hours q12h (every 12 hours) for 5 to 14 days. For subjects with moderate hepatic impairment (Child-Pugh Class B), iclaprim was administered at a dose of 40 mg in 500 mL normal saline, infused over 2 hours q12h for 5 to 14 days.
Dosing interval was every q12 h, q24 h, q48 h, or dosed by daily level based on creatinine clearance.
The primary efficacy endpoint was the proportion of randomized subjects who achieved an early clinical response (defined as reduction in the lesion size ≥20% compared to baseline) at 48 to 72 hours (ETP) and was evaluated among all randomized subjects (ITT population).
The NI bound were 10%. […] Equivalently, if the lower bound of the two-sided 95% CI for P1-P2 was greater than −0.100 based on the Z test with unpooled variance estimate, NI was concluded.

[9] = Phase III REVIVE-1 study, safety (adverse events); settings: REVIVE-1 safety population
Description: All subjects who received any study drug were evaluated for safety on the basis of medical history and physical examinations, reports of clinical AEs, routine electrocardiography, and clinically significant findings from routine liver function tests, serum chemistry, hematology, coagulation, and urinalysis (UA) tests. All adverse events were recorded throughout the study period, up to and including the LFU phone call. While blinded to treatment assignment, the investigator categorized the severity of each AE and the potential for relationship to study drug. Serious AEs (SAEs) include those that were life threatening, led to prolongation of the existing hospitalization, a congenital anomaly/birth defect, or caused persistent or significant disability, incapacity, or death. Treatment-emergent AEs (TEAEs) were defined as those that start or worsen in severity during or after the first dose of study drug administration through end of study.
Safety evaluation included incidence of TEAEs, laboratory test results (including liver function tests), vital signs, ECG results, and physical examination findings. All summaries of safety data was based on the safety population (all treated subjects).
The AE summary tables included subject (patient) counts. Therefore, if a subject experienced more than one episode of a particular AE, the subject was counted only once for that event. If a subject had more than one AE that was coded to the same preferred term, the subject was counted only once for that preferred term. Similarly, if a subject had more than one AE within a SOC, the subject was counted only once in that SOC.

Question: With CC[C@H]1OC(=O)[C@H](C)[C@@H](O[C@H]2C[C@@](C)(OC)[C@@H](O)[C@H](C)O2)[C@H](C)[C@@H](O[C@@H]2O[C@H](C)C[C@H](N(C)C)[C@H]2O)[C@](C)(OC)C[C@@H](C)C(=O)[C@H](C)[C@@H](O)[C@]1(C)O [clarithromycin] as the compound, how does the QTc prolongation [1] read?
Answer: 3 to 11 ms

Question: What does the source list for COc1cc(Cc2cnc(N)nc2N)c2c(c1OC)OC(C1CC1)C=C2 (racemic) [iclaprim mesylate, 5-[(2RS)-2-cyclopropyl-7,8-dimethoxy-2Hchromen-5-ylmethyl] pyrimidine-2,4-diamine methanesulfonate]?
Answer: LD50 ([2]; female rats): > 200 mg/kg; LD50 ([2]; male rats): 150 to 200 mg/kg; HED of lowest lethal IV dose [3]: 6.1 mg/kg; lowest lethal IV dose [3]: 75 mg/kg; NOAEL at 28 day (in vivo): 3.9 mg/kg/day; NOAEL at 28 day (in vivo; iv): 30 mg/kg/day; dosage with histopathological changes at the injection sites (in vivo; rat, iv, 4 week): ≥ 10 mg/kg/day; NOAEL at 4 week (in vivo; rat, iv, HED of NOAEL): 3.9 mg/kg/day; NOAEL at 4 week (in vivo; rat, iv, NOAEL): > 30 mg/kg/day; pH value of a 1% solution in water [4]: 4.2; pKa (physchem [5]): 7.2; solubility (physchem [6]): ~10000 µg/mL

Question: For CC(=O)NC[C@H]1CN(c2ccc(N3CCOCC3)c(F)c2)C(=O)O1 [linezolid, reference compound], which “adverse events related to QTc prolongation” value [7] is on record?
Answer: 2 cases

Question: With CN[C@H](CC(C)C)C(=O)N[C@H]1C(=O)N[C@@H](CC(N)=O)C(=O)N[C@H]2C(=O)N[C@H]3C(=O)N[C@H](C(=O)N[C@H](C(=O)O)c4cc(O)cc(O)c4-c4cc3ccc4O)[C@H](O)c3ccc(c(Cl)c3)Oc3cc2cc(c3O[C@@H]2O[C@H](CO)[C@@H](O)[C@H](O)[C@H]2O[C@H]2C[C@](C)(N)[C@H](O)[C@H](C)O2)Oc2ccc(cc2Cl)[C@H]1O [Vancomycin, vancomycin, reference compound] as the compound, how does the “Early Clinical Response (ECR), percent of subjects” value ([8]; ETP (48 to 72 hours)) read?
Answer: 81.0%

Question: And the “Clinical cure, number of subjects” value ([8]; TOC (7 to 14 days after study drug discontinuation))?
Answer: 261

Question: What about the “Clinical cure, percent of subjects” value ([8]; TOC) of the same compound?
Answer: 87.0%

Question: What about the “Deaths, number of subjects” value [9] of the same compound?
Answer: 1

Question: And the “Deaths, percent of subjects” value [9]?
Answer: 0.3%

Question: What about the “Study drug related TEAEs, number of subjects” value [9] of the same compound?
Answer: 53

Question: And the “Study drug related TEAEs, percent of subjects” value [9]?
Answer: 17.8%

Question: And the “TEAE-related SAEs (Serious AEs), number of subjects” value [9]?
Answer: 12

Question: What about the “TEAE-related SAEs (Serious AEs), percent of subjects” value [9] of the same compound?
Answer: 4.0%

Question: And the “TEAEs (Treatment Emergent Adverse Events), number of subjects” value [9]?
Answer: 128

Question: And the “TEAEs (Treatment Emergent Adverse Events), percent of subjects” value [9]?
Answer: 43.1%

Question: What about the “TEAEs leading to discontinuation of study drug, number of subjects” value [9] of the same compound?
Answer: 13

Question: What about the “TEAEs leading to discontinuation of study drug, percent of subjects” value [9] of the same compound?
Answer: 4.4%
